# Assay results taken from paper PMC10731658 (Chemical Research in Toxicology, 2023).
# Read-outs that look alike come from different tables or passages of the source.
# Legend:
# [1] = tested on: HepG2 cells; conditions: read-out: IC50 (cytotoxicity in HepG2 cells); conventional oximes; cited from earlier work
# [2] = tested on: HepG2 cells; experiment: Intracellular RONS detection with DCFH-DA fluorescent probe; type: cell-based, human; conditions: IC50 concentration
# Experimental: (§1) Two different fluorescent dyes, i.e., 2,7-dichlorodihydrofluorescein diacetate (DCFH-DA, Cayman Chemicals Company, Ann Arbor, MI) and dihydroethidium (DHE, Sigma-Aldrich, St. Louis, MO) were utilized for the determination of intracellular levels of RONS after 1, 4, and 24 h of incubation with tested oxime reactivators or TBHP (positive control). Cells incubated with oxime-free DMEM represented untreated control. After the incubation, the experimental medium was removed and replaced with a solution of DCFH-DA or DHE at concentrations of 20 and 5 μmol/L, respectively. The cells were subsequently incubated at 37 °C in a CO2 incubator for 45 min. Afterward, the fluorescence intensity of each well was measured using a Spark multimode microplate reader at an excitation wavelength of 485 nm for DCFH-DA or 528 nm for the DHE probe and an emission wavelength of 535 or 590 nm, respectively. Each experiment was carried out in triplicate and repeated three independent times.
# (§2) The toxicological indices IC50 were calculated from control-subtracted triplicates using nonlinear regression (four parameters) using GraphPad Prism 9 software version 9.3.0 (GraphPad Software Inc., San Diego, CA). One-way analysis of variance (ANOVA) followed by Dunnetʼs multiple comparison test was used for RONS, MDA, NP-SH, and NP-SS-NP statistical analysis by GraphPad Prism 9 software, version 9.3.0. Data are expressed as means ± standard deviation (SD) of three independent measurements (n = 3). Significant differences between oxime-treated and untreated control groups (p ≤ 0.05) were marked by an asterisk (*).
# [3] = tested on: HepG2 cells; experiment: Intracellular RONS detection with DHE fluorescent probe; type: cell-based, human; conditions: IC50 concentration; for increase of free radicals/RONS (DHE probe) vs negative control: 1 h incubation
# Experimental: as §1, §2
# [4] = tested on: HepG2 cells; experiment: Total intracellular MDA by LC-MS/MS; type: cell-based, human; conditions: IC50 concentration
# [5] = tested on: HepG2 cells; experiment: Intracellular nonprotein thiols (NP-SH) by HPLC-UV; type: cell-based, human; conditions: IC50 concentration
# Experimental: (§3) The culture medium was removed from a 25 cm^2 culture flask on the day of the experiment, and cells were washed twice with 3 mL of phosphate-buffered saline (PBS; GE Healthcare Life Sciences, South Logan, UT). Subsequently, 3 mL of a plain DMEM medium (negative control) and a DMEM medium containing TBHP (positive control) or individual oximes were added to each flask, and cells were incubated for 1, 4, and 24 h. The concentration of individual oxime and TBHP in the DMEM medium corresponded to the IC50 value. After incubation, the experimental medium was removed, and cells were washed with 3 mL of PBS and harvested by scraping. The resulting suspension was centrifuged at 220g and 21 °C for 5 min (Universal 320R centrifuge, Hettich, Tuttlingen, Germany). The supernatant was removed and dried cell pellets were stored at −80 °C. Each experiment was carried out in three independent replicates.
# (§4) The cell pellets were thawed at room temperature, resuspended in 500 μL of ultrapure water (Millipore Purification System, Merck, Millipore, Darmstadt, Germany), and sonicated for 2 min (2 s cycle, amplitude 20%) in a Q500 homogenizer (QSONICA Sonicators, Newton). Then, the homogenate was divided into three parts: 250 μL for the determination of malondialdehyde (MDA), 100 μL for each determination of nonprotein thiols (NP-SH) and disulfides (NP-SS-NP), and 10 μL for the Bradford protein assay.
# (§5) The HepG2 cell homogenate obtained, as described in Section 2.6, was processed for the determination of intracellular NP-SH and NP-SS-NP, according to Muckova et al.[11] The samples were analyzed using the HPLC system described above equipped with an SPD 20-AV Prominence UV/vis detector. The analysis was carried out on a Phenomenex LUNA C18 column (150 mm × 3 mm, 3 μm, 100 Å) protected with a Security Cartridge (4 mm × 2 mm, Phenomenex, Torrance) at 30 °C and a constant flow rate of 0.330 mL/using the mobile phase consisting of 0.9% aqueous FA (A) and ACN (B) under gradient conditions: 0–1 min 12% B, 1.1–2 min 12–55% B, 2–7 min 55% B, 7.1 min 55% B, and 7.1–10 min 12% B. The detector was set at 326 nm and the sample injection volume was 20 μL.
# [6] = tested on: HepG2 cells; experiment: Intracellular nonprotein disulfides (NP-SS-NP) by HPLC-UV; type: cell-based, human; conditions: IC50 concentration
# Experimental: as §3, §4, §5
# [7] = tested on: HepG2 cells; experiment: Flow cytometric detection of cell death (Annexin V & Dead Cell Assay); type: cell-based, human; conditions: IC50 concentration
# Description: 2. Flow cytometric detection of cell death
# The microcapillary flow cytometry (Muse™ Cell Analyzer, Luminex, Austin, TX) was used to determine cell death.
# This method is based on detecting externalization of phosphatidylserine on the surface of cells undergoing apoptosis.
# The technique allows quantitative analysis of non-apoptotic, early apoptotic, late apoptotic, and necrotic cells. The reagent mixture also contains the membrane non-permeable dye 7-aminoactinomycin D. This component distinguishes necrotic and late apoptotic cells from the live and early apoptotic cells. The measurement of cell death was carried out according to manufacturer instructions after 1, 4, and 24 h incubation with tested oxime reactivators and with oxime-free medium as an untreated control. During the first day of the experiment, cells were seeded into a 24-well plate (TPP) with a density of […]. After the incubation, cells from each well were collected into the polystyrene tube (TPP) and centrifuged for 5 min at 1000 × g at room temperature. The supernatant was discarded. The cell suspensions […]
# were prepared in fresh medium DMEM. Afterward 100 μL of cell suspension were mixed with the 100 μL of Muse™ Annexin V & Dead Cell Assay reagent, and the samples were incubated for 20 min at room temperature in the dark.
# Per measurement, 5000 cells were analyzed. Each experiment was performed in triplicates and repeated three independent times. The concentration of K048, K074, K075, and K203 oximes and TBHP (positive control) used in […]
# After 1 h of incubation (Figure S-1.) with tested oxime reactivators and TBHP as the positive control, the percentage […]
# A significant change in the percentage of
# The amount of early apoptotic cells
# . On the other hand, the percentage of late apoptotic cells was […]
# control cells. The count of late apoptotic cells enlarged by 7.74, 4.71 , 4.17, 4.13, and 3.20 %, respectively. The statistical differences were also found in the percentage of necrotic cells in this time interval. The highest increment […]
# K048, K074, K075, and K203 groups when compared with control.
# K075, and K203 treated groups, respectively, when compared with control. Finally, the percentage of necrotic cells […]
# Fig. S-1 The percentage of intact (white column), early (light grey column), late apoptotic (dark grey column), and necrotic HepG2 cells (black column) determined using microcapillary flow cytometry after 1 h, 4 h and 24 h treatment with oxime acetylcholinesterase reactivators or TBHP (positive control). Control represents the cells incubated with an oxime-free culture medium. One-way analysis of variance (ANOVA) followed by Dunnetʼs multiple comparison test was used for statistical analysis by GraphPad Prism 9 software version 9.3.0. Data are expressed as means ± standard deviation (SD) of three independent measurements (n = 3). Significant differences between oxime-treated and untreated control groups (p ≤ 0.05) and marked by asterisk (*).
# 3. Stability of oximes in DMEM medium at 37 °C over 24 hours
# The stability of oximes K048, K074, K075, and K203 in DMEM medium, with concentrations corresponding to their […]
# UV, following the chromatographic conditions described by Vanova et al. (2021)13. The results over the tested time […]
# Fig. S-2 Data are expressed in percentage as means ± standard deviation (SD) of three independent measurements […]
# [8] = tested on: HepG2 cells; conditions: from 15 min after simultaneous incubation with TBHP (IC50 concentration); oximes about 10-fold below IC50; cited from earlier work
# [9] = tested on: rat plasma; conditions: in vivo, 23 mg/kg; cited from earlier work
# [10] = tested on: HepG2 cells; experiment: Colorimetric MTT cell viability assay, 24 h; conditions: read-out: IC50 (cytotoxicity, MTT assay), 24 h incubation
# [11] = Colorimetric MTT cell viability assay, 24 h; conditions: human, HepG2 cells, IC50 (cytotoxicity, MTT assay), 24 h incubation
compound,measurement,setting,value
"NC(=O)c1cc[n+](COC[n+]2ccccc2/C=N/O)cc1 [HI-6, asoxime]",IC50,[1],~3 mM
"NC(=O)c1cc[n+](C/C=C/C[n+]2ccc(C=NO)cc2)cc1.[Br-].[Br-] [K203, 4-carbamoyl-1-((2E)-4-(4-((hydroxyimino)methyl)pyridin-1-ium-1-yl)but-2-en-1-yl)pyridin-1-ium dibromide]",increase of RONS (DCFH-DA probe) vs negative control,[2]; 1 h incubation,39.2%
same,increase of RONS (DCFH-DA probe) vs negative control,[2]; 4 h incubation,39.2%
same,increase of RONS (DCFH-DA probe) vs negative control,[2]; 24 h incubation,22.8%
same,increase of free radicals/RONS (DHE probe) vs negative control,[3],8.5%
same,increase of RONS (DHE probe) vs negative control,[3]; 24 h incubation,22.1%
same,resulting MDA levels (in words),[4]; within the 24 h time frame,insignificant
same,decrease in NP-SH levels vs untreated control,[5]; 1 h,17.4%
same,decrease in NP-SH levels vs untreated control,[5]; 24 h,12.1%
same,resulting NP-SS-NP levels (in words),[6]; within the 24 h time frame,insignificant
same,decrease in percentage of intact (live) cells vs control,[7]; 1 h,~8.43%
same,increase in early apoptotic cells vs control,[7]; 1 h,~1.51%
same,increase in late apoptotic cells vs control,[7]; 1 h,4.13%
same,decrease in percentage of live cells vs control,[7]; 4 h,8.8%
same,increase in late apoptotic cells vs control,[7]; 4 h,4.24%
same,increase in necrotic cell population vs control,[7]; 4 h,1.74%
same,decrease in percentage of intact cells vs control,[7]; 24 h,46.6%
same,increase in early apoptotic cells vs control,[7]; 24 h,13.3%
same,increase in late apoptotic cells vs control,[7]; 24 h,32.9%
same,reduction of ROS production,[8],98%
same,low-molecular-weight antioxidants (LMWAs) in plasma,[9],increase
same,IC50,[10],2.05 mM
"O/N=C/c1cc[n+](COC[n+]2ccc(/C=N/O)cc2)cc1 [LüH-6, obidoxime]",IC50,[1],~4 mM
"O/N=C/c1cc[n+](C[n+]2ccc(/C=N/O)cc2)cc1 [MMB-4, methoxime]",IC50,[1],~1 mM
"CC(C)(C)OO [TBHP, tert-butyl hydroperoxide, reference compound]",increase of RONS (DCFH-DA probe) vs negative control,[2]; 1 h incubation,16.7%
same,decrease of RONS (DCFH-DA probe) vs negative control,[2]; 24 h incubation,47.6%
same,increase of free radicals/RONS (DHE probe) vs negative control,[3],30.7%
same,increase of RONS (DHE probe) vs negative control,[3]; 4 h incubation,111%
same,increase of MDA levels vs untreated control,[4]; 4 h incubation,36.1%
same,increase of MDA levels vs untreated control,[4]; 24 h exposure,96.6%
same,decrease in NP-SH levels vs untreated control,[5]; 1 h,24.6%
same,decrease in NP-SH levels vs untreated control,[5]; 4 h,45.0%
same,decrease in NP-SH levels vs untreated control,[5]; 24 h,53.1%
same,increase in NP-SS-NP levels vs untreated control,[6]; 1 h,69.6%
same,increase in NP-SS-NP levels vs untreated control,[6]; 4 h,119%
same,increase in NP-SS-NP levels vs untreated control,[6]; 24 h,166%
same,decrease in percentage of intact (live) cells vs control,[7]; 1 h,~11.6%
same,increase in late apoptotic cells vs control,[7]; 1 h,7.74%
same,increase in necrotic cells vs control,[7]; 1 h,3.24%
same,decrease in percentage of live cells vs control,[7]; 4 h,14.6%
same,increase in early apoptotic cells vs control,[7]; 4 h,1.02%
same,increase in late apoptotic cells vs control,[7]; 4 h,9.79%
same,increase in necrotic cell population vs control,[7]; 4 h,3.77%
same,decrease in percentage of intact cells vs control,[7]; 24 h,42.7%
same,increase in early apoptotic cells vs control,[7]; 24 h,7.42%
same,increase in late apoptotic cells vs control,[7]; 24 h,31.6%
same,increase in necrotic cells vs control,[7]; 24 h,3.66%
same,IC50 at 24 h,[11],130 µM
"O/N=C/c1cc[n+](CCC[n+]2ccc(/C=N/O)cc2)cc1 [TMB-4, trimedoxime]",IC50,[1],~22 mM
"N[C@@H](CCC(=O)N[C@@H](CS)C(=O)NCC(=O)O)C(=O)O [reduced glutathione, glutathione, reference compound]",reduction of ROS production,[8],87%
